Measurements reported in PubChem BioAssay AID2060506 (Molecular Pharmacology Branch, DTP, NCI, 2025).
Values belong to the compound of their own block, whether it stands above or below them.

System: 598228-144-R-J1-PDC complex spheroid viability
Experiment: Anticancer human tumor 598228-144-R-J1-PDC patient-derived serous endometrial adenocarcinoma cell line growth inhibition [GQUAD]
Settings: for IC50: curve of first compound; for viability, T/C: stronger effect = lower value
Method in brief: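 Multi-cell-type spheroids of tumor cells with HUVEC and mesenchymal stem cells, treated with drug combinations. Concentrations descend in half-log steps from near clinical Cmax, or from 10 microM where Cmax is unknown; viability read-out.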

[1] = second compound 0.0316 µM, first compound 0.0316 µM
[2] = second compound 0.0316 µM, first compound 0.1 µM
[3] = second compound 0.0316 µM, first compound 0.316 µM
[4] = second compound 0.0316 µM, first compound 1 µM
[5] = second compound 0.0316 µM, first compound 3.16 µM
[6] = second compound 0.0316 µM, first compound 10 µM
[7] = second compound 0.1 µM, first compound 0.0316 µM
[8] = second compound 0.1 µM, first compound 0.1 µM
[9] = second compound 0.1 µM, first compound 0.316 µM
[10] = second compound 0.1 µM, first compound 1 µM
[11] = second compound 0.1 µM, first compound 3.16 µM
[12] = second compound 0.1 µM, first compound 10 µM
[13] = second compound 0.316 µM, first compound 0.0316 µM
[14] = second compound 0.316 µM, first compound 0.1 µM
[15] = second compound 0.316 µM, first compound 0.316 µM
[16] = second compound 0.316 µM, first compound 1 µM
[17] = second compound 0.316 µM, first compound 3.16 µM
[18] = second compound 0.316 µM, first compound 10 µM
[19] = second compound 1 µM, first compound 0.0316 µM
[20] = second compound 1 µM, first compound 0.1 µM
[21] = second compound 1 µM, first compound 0.316 µM
[22] = second compound 1 µM, first compound 1 µM
[23] = second compound 1 µM, first compound 3.16 µM
[24] = second compound 1 µM, first compound 10 µM
[25] = second compound 3.16 µM, first compound 0.0316 µM
[26] = second compound 3.16 µM, first compound 0.1 µM
[27] = second compound 3.16 µM, first compound 0.316 µM
[28] = second compound 3.16 µM, first compound 1 µM
[29] = second compound 3.16 µM, first compound 3.16 µM
[30] = second compound 3.16 µM, first compound 10 µM
[31] = second compound 10 µM, first compound 0.0316 µM
[32] = second compound 10 µM, first compound 0.1 µM
[33] = second compound 10 µM, first compound 0.316 µM
[34] = second compound 10 µM, first compound 1 µM
[35] = second compound 10 µM, first compound 3.16 µM
[36] = second compound 10 µM, first compound 10 µM
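Further: spheroids exposed to the agents for one week before reading.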
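Wherever viability, T/C is given: percent of vehicle DMSO control viability so 100% = untreated growth.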

IC50 (second compound 0.0316 µM): 56.5 nM | IC50 (second compound 0.1 µM): < 31.6 nM | IC50 (second compound 0.316 µM): 66 nM | IC50 (second compound 1 µM): 38.7 nM | IC50 (second compound 3.16 µM): < 31.6 nM | IC50 (second compound 10 µM): < 31.6 nM
Structure (SMILES): CC1COCCN1c1cc(-c2ccnn2C)c2ccnc(-c3ccn[nH]3)c2n1 (centres undefined) + Cc1cnc(CNC(=O)c2c(=O)c3ccc(N4CCCN(C)CC4)nc3n3c2sc2ccccc23)cn1
viability, T/C [1]: 52% | viability, T/C [2]: 48.3% | viability, T/C [3]: 44.7% | viability, T/C [4]: 29.7% | viability, T/C [5]: 33.5% | viability, T/C [6]: 30.9% | viability, T/C [7]: 47.9% | viability, T/C [8]: 38.4% | viability, T/C [9]: 43% | viability, T/C [10]: 33.2% | viability, T/C [11]: 38.3% | viability, T/C [12]: 25.8% | viability, T/C [13]: 58.2% | viability, T/C [14]: 40.6% | viability, T/C [15]: 42.9% | viability, T/C [16]: 32.5% | viability, T/C [17]: 39.1% | viability, T/C [18]: 21.3% | viability, T/C [19]: 52.3% | viability, T/C [20]: 42% | viability, T/C [21]: 43.2% | viability, T/C [22]: 33% | viability, T/C [23]: 28.2% | viability, T/C [24]: 22.2% | viability, T/C [25]: 45.8% | viability, T/C [26]: 26.1% | viability, T/C [27]: 33.6% | viability, T/C [28]: 23.4% | viability, T/C [29]: 20.7% | viability, T/C [30]: 4.32% | viability, T/C [31]: 23.5% | viability, T/C [32]: 17.4% | viability, T/C [33]: 8.76% | viability, T/C [34]: 6.24% | viability, T/C [35]: 0.97% | viability, T/C [36]: 8.07%

IC50 (second compound 0.0316 µM): 8280 nM | IC50 (second compound 0.1 µM): 793 nM | IC50 (second compound 0.316 µM): 3550 nM | IC50 (second compound 1 µM): 2620 nM | IC50 (second compound 3.16 µM): < 31.6 nM | IC50 (second compound 10 µM): < 31.6 nM
Structure (SMILES): CC(C)n1c(=O)n(C)c2cnc3cc(F)c(-c4ccc(OCCCN5CCCCC5)nc4)cc3c21 + Cc1cnc(CNC(=O)c2c(=O)c3ccc(N4CCCN(C)CC4)nc3n3c2sc2ccccc23)cn1
viability, T/C [1]: 58.2% | viability, T/C [2]: 78.2% | viability, T/C [3]: 77.8% | viability, T/C [4]: 63.1% | viability, T/C [5]: 62.8% | viability, T/C [6]: 47.5% | viability, T/C [7]: 70.2% | viability, T/C [8]: 57.9% | viability, T/C [9]: 53.4% | viability, T/C [10]: 44.3% | viability, T/C [11]: 61.3% | viability, T/C [12]: 36.8% | viability, T/C [13]: 52.1% | viability, T/C [14]: 50.3% | viability, T/C [15]: 55.1% | viability, T/C [16]: 48.8% | viability, T/C [17]: 52.1% | viability, T/C [18]: 36% | viability, T/C [19]: 53.2% | viability, T/C [20]: 59.2% | viability, T/C [21]: 59.6% | viability, T/C [22]: 56.5% | viability, T/C [23]: 47.5% | viability, T/C [24]: 28.1% | viability, T/C [25]: 50.4% | viability, T/C [26]: 46% | viability, T/C [27]: 48.3% | viability, T/C [28]: 50.5% | viability, T/C [29]: 38.1% | viability, T/C [30]: 3.5% | viability, T/C [31]: 40.7% | viability, T/C [32]: 36.6% | viability, T/C [33]: 39.1% | viability, T/C [34]: 29.9% | viability, T/C [35]: 25% | viability, T/C [36]: 0.34%
